Laboratory results taken from US12180193B2, “Accelerating fibrosarcoma protein degrading compounds and associated methods of use” (Arvinas Operations, Inc., priority 2020, dated 2024).

Key:
BRAF G466V = target: T1, BRAF G466V (Homo sapiens, UniProt P15056, G466V); assay: Cellular assay of target protein degradation, T-Rex 293 cells stably transfected with HA-BRAF G466V (HA immunofluorescence, high content imaging); format: cell-based; conditions: T-Rex 293 HA-BRAF G466V; for DC50: half maximal degradation, read-out: BRaf G466V DC50; for Dmax: maximum degradation observed
T1 construct: expressed in transfected cells
Method: Protocol for a cellular assay of target protein degradation (T-Rex 293 cells). T-Rex 293 cells were purchased from Invitrogen (#R71007), and stably transfected with a pcDNA4/TO_HA-BRAF G466V construct, using 400 ug Zeocin for selection. G466V cells are plated in Dulbecco's Modified Eagle Medium (DMEM; Gibco #11965118) containing 10% fetal bovine serum (FBS; Gibco #16000044) and 0.75 ng/mL doxycycline (Selleckchem #4163) at a density of 5,000 cells/well in 50 μl on poly-D-lysine (PDL) coated, black clear bottom 96-well plates (Corning #354640) and incubated for 24 hours at 37° C. with 5% CO2. The following day 50 ul of tested compound was added at 2x concentration in DMEM with a final concentration ranging from 30 nM to 3 pM in 0.1% dimethylsulfoxide (DMSO), and incubated for 24 hours at 37° C. with 5% CO2. At the end of the experimental treatment, the media was flicked off and cells washed once with phosphate-buffered saline (PBS)++ (PBS with CaCl and MgCl) and gently replacing with 200 μl PBS++ per well. The PBS++ was removed and 50 uL 4% paraformaldehyde (PFA; EMS #15710) in PBS++ was added, and incubate at room temperature for 15 minutes. Cells were washed once with PBS++ and 50 uL 0.1% Triton X-100 (Fisher #BP151-500) in PBS++ was added. Plate was incubate for 5 minutes at room temperature. Cells were was once with PBS++. Cells were blocked with 100 uL Licor blocking buffer (Licor #927-50000) for 1 hour at room temperature. Next, 50 uL of HA antibody (CST #3724) at 1:1000 in Licor blocking buffer was added, and the plate incubate overnight at 4° C. The plates were parafilmed to prevent evaporation. Plate was washed three times with 200 uL PBS++. Fifty microliters of HCS secondary antibody solution [1:1000 Hoechst (Invitrogen #H3570), 1:1000 phalloidin (Invitrogen #A22287) and 1:5000 Alexa fluor (Invitrogen #A11008)] was added and incubated for 1 hour. Plate was wash three times with 200 uL PBS++, and imaged on a high content reader (ImageXpress Micro XLS, Molecular Devices).
(§1) The concentration of exemplary compound that leads to half maximal degradation (DC50) as well as the maximum degradation observed (Dmax, conventionally expressed as a percentage of control), which are below in Table 2 for the exemplary compounds of Table 1.

BRAF V600E = target: T2, BRAF V600E (Homo sapiens, UniProt P15056, V600E); assay: Cellular assay of target protein degradation, T-Rex 293 cells stably transfected with HA-BRAF_V600E (HA immunofluorescence, high content imaging); format: cell-based; conditions: T-Rex 293 HA-BRAF V600E; for DC50: half maximal degradation, read-out: BRaf V600E DC50; for Dmax: maximum degradation observed
T2 construct: expressed in transfected cells
Method: Protocol for a cellular assay of target protein degradation (T-Rex 293 cells). T-Rex 293 cells were purchased from Invitrogen (#R71007), and stably transfected with a pcDNA4/TO_HA-BRAF_V600E construct, using 400 ug Zeocin for selection. V600e cells are plated in Dulbecco's Modified Eagle Medium (DMEM; Gibco #11965118) containing 10% fetal bovine serum (FBS; Gibco #16000044) and 1 ng/mL doxycycline (Selleckchem #4163) at a density of 5,000 cells/well in 50 μl on poly-D-lysine (PDL) coated, black clear bottom 96-well plates (Corning #354640) and incubated for 24 hours at 37° C. with 5% C02. The following day 50 ul of tested compound was added at 2x concentration in DMEM with a final concentration ranging from 1 μM to 0.1 nM in 0.1% dimethylsulfoxide (DMSO), and incubated for 24 hours at 37° C. with 5% CO2. At the end of the experimental treatment, the media was flicked off and cells washed once with phosphate-buffered saline (PBS)++ (PBS with CaCl and MgCl) and gently replacing with 200 μl PBS++ per well. The PBS++ was removed and 50 uL 4% paraformaldehyde (PFA; EMS #15710) in PBS++ was added, and incubate at room temperature for 15 minutes. Cells were washed once with PBS++ and 50 uL 0.1% Triton X-100 (Fisher #BP151-500) in PBS++ was added. Plate was incubate for 5 minutes at room temperature. Cells were was once with PBS++. Cells were blocked with 100 uL Licor blocking buffer (Licor #927-50000) for 1 hour at room temperature. Next, 50 uL of HA antibody (CST #3724) at 1:1000 in Licor blocking buffer was added, and the plate incubate overnight at 4° C. The plates were parafilmed to prevent evaporation. Plate was washed three times with 200 uL PBS++. Fifty microliters of HCS secondary antibody solution [1:1000 Hoechst (Invitrogen #H3570), 1:1000 phalloidin (Invitrogen #A22287) and 1:5000 Alexa fluor (Invitrogen #A11008)] was added and incubated for 1 hour. Plate was wash three times with 200 uL PBS++, and imaged on a high content reader (ImageXpress Micro XLS, Molecular Devices).
as §1

T2 sequence (P15056 whole entry V600E): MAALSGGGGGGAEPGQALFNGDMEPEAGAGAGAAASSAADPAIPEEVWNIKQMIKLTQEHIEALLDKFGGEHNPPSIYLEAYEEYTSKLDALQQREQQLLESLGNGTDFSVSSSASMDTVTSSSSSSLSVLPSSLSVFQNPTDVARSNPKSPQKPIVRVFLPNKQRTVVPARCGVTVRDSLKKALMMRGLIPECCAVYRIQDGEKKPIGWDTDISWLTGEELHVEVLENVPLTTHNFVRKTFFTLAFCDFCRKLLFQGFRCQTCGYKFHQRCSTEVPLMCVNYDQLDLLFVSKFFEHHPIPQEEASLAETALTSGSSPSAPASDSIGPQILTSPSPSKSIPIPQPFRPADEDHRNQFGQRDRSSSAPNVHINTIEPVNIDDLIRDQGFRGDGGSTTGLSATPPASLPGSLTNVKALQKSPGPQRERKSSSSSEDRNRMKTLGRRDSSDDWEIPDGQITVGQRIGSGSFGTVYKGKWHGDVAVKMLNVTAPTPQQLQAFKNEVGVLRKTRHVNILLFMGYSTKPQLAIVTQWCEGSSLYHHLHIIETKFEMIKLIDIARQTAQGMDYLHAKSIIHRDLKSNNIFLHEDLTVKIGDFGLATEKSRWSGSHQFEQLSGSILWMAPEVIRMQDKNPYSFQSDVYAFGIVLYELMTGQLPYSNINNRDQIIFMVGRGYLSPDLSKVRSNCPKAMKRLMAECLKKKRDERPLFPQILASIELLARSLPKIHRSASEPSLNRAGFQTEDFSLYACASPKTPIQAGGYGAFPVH
T1 sequence (P15056 whole entry G466V): as the sequence (P15056 whole entry V600E) above, with G466V, E600V counted along it

Structure (SMILES)	DC50 (BRAF G466V) [nM]	Dmax (BRAF G466V) [%]	DC50 (BRAF V600E) [nM]	Dmax (BRAF V600E) [%]
O=C1CCC(N2Cc3cc(N4CCC(CN5CCN(c6ccc(-c7cnc8[nH]cc(C(=O)c9c(F)ccc(NS(=O)(=O)N%10CC[C@@H](F)C%10)c9F)c8c7)cc6F)CC5)CC4)ccc3C2=O)C(=O)N1 (stereo partly drawn) [Compound 11, (3R)-N-[3-(5-{4-[4-({1-[2-(2,6-dioxopiperidin-3-yl)-1-oxo-2,3-dihydro-1H-isoindol-5-yl]piperidin-4-yl}methyl)piperazin-1-yl]-3-fluorophenyl}-1H-pyrrolo[2,3-b]pyridine-3-carbonyl)-2,4-difluorophenyl]-3-fluoropyrrolidine-1-sulfonamide]	< 1	35 to 70	5 to 50	35 to 70
COc1cc(N2CC3(C2)CN(CC2CCN(c4ccc(-c5cnc6[nH]cc(C(=O)c7c(F)ccc(NS(=O)(=O)N8CC[C@@H](F)C8)c7F)c6c5)cc4)CC2)[C@H]3C)cc2c1C(=O)N(C1CCC(=O)NC1=O)C2 (stereo partly drawn) [Compound 12, (3R)-N-(3-{5-[4-(4-{[(1S)-6-[2-(2,6-dioxopiperidin-3-yl)-7-methoxy-1-oxo-2,3-dihydro-1H-isoindol-5-yl]-1-methyl-2,6-diazaspiro[3.3]heptan-2-yl]methyl}piperidin-1-yl)phenyl]-1H-pyrrolo[2,3-b]pyridine-3-carbonyl}-2,4-difluorophenyl)-3-fluoropyrrolidine-1-sulfonamide]	1 to 10	35 to 70	5 to 50	> 70
O=C1CCC(N2Cc3cc(O[C@H]4C[C@@]5(COCCN5CC5CCN(c6ccc(-c7cnc8[nH]cc(C(=O)c9c(F)ccc(NS(=O)(=O)N%10CC[C@@H](F)C%10)c9F)c8c7)cc6)CC5)C4)ccc3C2=O)C(=O)N1 (stereo partly drawn) [Compound 13, (3R)-N-(2,4-difluoro-3-{5-[4-(4-{[(2r,4r)-2-{[2-(2,6-dioxopiperidin-3-yl)-1-oxo-2,3-dihydro-1H-isoindol-5-yl]oxy}-8-oxa-5-azaspiro[3.5]nonan-5-yl]methyl}piperidin-1-yl)phenyl]-1H-pyrrolo[2,3-b]pyridin-3-carbonyl}phenyl)-3-fluoropyrrolidine-1-sulfonamide]	10 to 30	35 to 70	> 500	> 70
O=C1CCC(N2Cc3cc(O[C@H]4C[C@]5(COCCN5CC5CCN(c6ccc(-c7cnc8[nH]cc(C(=O)c9c(F)ccc(NS(=O)(=O)N%10CC[C@@H](F)C%10)c9F)c8c7)cc6)CC5)C4)ccc3C2=O)C(=O)N1 (stereo partly drawn) [Compound 14, (3R)-N-(2,4-difluoro-3-{5-[4-(4-{[(2s,4s)-2-{[2-(2,6-dioxopiperidin-3-yl)-1-oxo-2,3-dihydro-1H-isoindol-5-yl]oxy}-8-oxa-5-azaspiro[3.5]nonan-5-yl]methyl}piperidin-1-yl)phenyl]-1H-pyrrolo[2,3-b]pyridine-3-carbonyl}phenyl)-3-fluoropyrrolidine-1-sulfonamide]	–	< 35	> 500	35 to 70
O=C1CCC(N2Cc3cc(N4CCC(CN5CCN(c6ncc(-c7cnc8[nH]cc(C(=O)c9c(F)ccc(NS(=O)(=O)N%10CC[C@@H](F)C%10)c9F)c8c7)cn6)CC5)CC4)ccc3C2=O)C(=O)N1 (stereo partly drawn) [Compound 18, (3R)-N-[3-(5-{2-[4-({1-[2-(2,6-dioxopiperidin-3-yl)-1-oxo-2,3-dihydro-1H-isoindol-5-yl]piperidin-4-yl}methyl)piperazin-1-yl]pyrimidin-5-yl}-1H-pyrrolo[2,3-b]pyridine-3-carbonyl)-2,4-difluorophenyl]-3-fluoropyrrolidine-1-sulfonamide]	< 1	35 to 70	50 to 500	> 70

Continued, values first:

DC50 (BRAF G466V) [nM]	Dmax (BRAF G466V) [%]	DC50 (BRAF V600E) [nM]	Dmax (BRAF V600E) [%]	Structure (SMILES)
10 to 30	35 to 70	5 to 50	35 to 70	O=C1CCC(N2Cc3cc(N4CC5(CC(CN6CCc7cc(-c8cnc9[nH]cc(C(=O)c%10c(F)ccc(NS(=O)(=O)N%11CC[C@@H](F)C%11)c%10F)c9c8)ccc7C6)C5)C4)ccc3C2=O)C(=O)N1 (stereo partly drawn) [Compound 8, (3R)-N-(3-{5-[2-({2-[2-(2,6-dioxopiperidin-3-yl)-1-oxo-2,3-dihydro-1H-isoindol-5-yl]-2-azaspiro[3.3]heptan-6-yl}methyl)-1,2,3,4-tetrahydroisoquinolin-6-yl]-1H-pyrrolo[2,3-b]pyridine-3-carbonyl}-2,4-difluorophenyl)-3-fluoropyrrolidine-1-sulfonamide]
< 1	35 to 70	5 to 50	35 to 70	O=C1CCC(N2Cc3cc(N4CCC5(CCN(CCc6ccc(-c7cnc8[nH]cc(C(=O)c9c(F)ccc(NS(=O)(=O)N%10CC[C@@H](F)C%10)c9F)c8c7)cc6)CC5)C4)ccc3C2=O)C(=O)N1 (stereo partly drawn) [Compound 10, (3R)-N-(3-{5-[4-(2-{2-[2-(2,6-dioxopiperidin-3-yl)-1-oxo-2,3-dihydro-1H-isoindol-5-yl]-2,8-diazaspiro[4.5]decan-8-yl}ethyl)phenyl]-1H-pyrrolo[2,3-b]pyridine-3-carbonyl}-2,4-difluorophenyl)-3-fluoropyrrolidine-1-sulfonamide]
> 30	–	> 500	–	O=C1CCC(N2Cc3cc(N4CC[C@@H]4COc4ccc(-c5cnc6[nH]cc(C(=O)c7c(F)ccc(NS(=O)(=O)N8CC[C@@H](F)C8)c7F)c6c5)cc4)ccc3C2=O)C(=O)N1 (stereo partly drawn) [Compound 15, (3R)-N-{3-[5-(4-{[(2R)-1-[2-(2,6-dioxopiperidin-3-yl)-1-oxo-2,3-dihydro-1H-isoindol-5-yl]azetidin-2-yl]methoxy}phenyl)-1H-pyrrolo[2,3-b]pyridine-3-carbonyl]-2,4-difluorophenyl}-3-fluoropyrrolidine-1-sulfonamide]
1 to 10	35 to 70	50 to 500	35 to 70	O=C1CCC(N2Cc3cc(N4CCC(N5C[C@@H]6C[C@H]5CN(c5ccc(-c7cnc8[nH]cc(C(=O)c9c(F)ccc(NS(=O)(=O)N%10CC[C@@H](F)C%10)c9F)c8c7)cc5)C6)CC4)ccc3C2=O)C(=O)N1 (stereo partly drawn) [Compound 16, (3R)-N-[3-(5-{4-[(1S,5S)-6-{1-[2-(2,6-dioxopiperidin-3-yl)-1-oxo-2,3-dihydro-1H-isoindol-5-yl]piperidin-4-yl}-3,6-diazabicyclo[3.2.1]octan-3-yl]phenyl}-1H-pyrrolo[2,3-b]pyridine-3-carbonyl)-2,4-difluorophenyl]-3-fluoropyrrolidine-1-sulfonamide]
> 30	–	> 500	–	O=C1CCC(N2Cc3cc(OC[C@@H]4CCN4c4ccc(-c5cnc6[nH]cc(C(=O)c7c(F)ccc(NS(=O)(=O)N8CC[C@@H](F)C8)c7F)c6c5)cc4)ccc3C2=O)C(=O)N1 (stereo partly drawn) [Compound 17, (3R)-N-[3-(5-{4-[(2S)-2-({[2-(2,6-dioxopiperidin-3-yl)-1-oxo-2,3-dihydro-1H-isoindol-5-yl]oxy}methyl)azetidin-1-yl]phenyl}-1H-pyrrolo[2,3-b]pyridine-3-carbonyl)-2,4-difluorophenyl]-3-fluoropyrrolidine-1-sulfonamide]
